Reference: patent publication EP0942906B1, “COMPOUNDS USEFUL FOR INHIBITION OF FARNESYL PROTEIN TRANSFERASE” (SCHERING CORPORATION, priority 1996, dated 1998)
Where two headings read alike, the source gives them in different places.

Assays:
Conditions in all cases: range stated for the listed group of compounds
[1] = system: Human tumor cells; experiment: Soft Agar Assay (anchorage-independent growth, colony count after MTT staining); assay type: cell-based
Experimental: Anchorage-independent growth is a characteristic of tumorigenic cell lines. Human tumor cells are suspended in growth medium containing 0.3% agarose and an indicated concentration of a farnesyl transferase inhibitor. The solution is overlayed onto growth medium solidified with 0.6% agarose containing the same concentration of farnesyl transferase inhibitor as the top layer. After the top layer is solidified, plates are incubated for 10-16 days at 37°C under 5% CO2 to allow colony outgrowth. After incubation, the colonies are stained by overlaying the agar with a solution of MTT (3-[4,5-dimethylthiazol-2-yl]-2.5-diphenyltetrazolium bromide, Thiazolyl blue) (1 mg/mL in PBS). Colonies can be counted and the IC50's can be determined.

[2] = target: farnesyl protein transferase (Homo sapiens, UniProt P49354+P49356); experiment: FPT IC50, inhibition of farnesyl protein transferase, in vitro enzyme assay (procedure of WO 95/10516); assay type: biochemical
Experimental: (§1) FPT IC50 (inhibition of farnesyl protein transferase, in vitro enzyme assay) and COS Cell IC50 (Cell-Based Assay) were determined following the assay procedures described in WO 95/10516, published April 20, 1995. GGPT IC50 (inhibition of geranylgeranyl protein transferase, in vitro enzyme assay), Cell Mat Assay, and anti-tumor activity (in vivo anti-tumor studies) could be determined by the assay procedures described in WO 95/10516.

[3] = system: COS Cell; experiment: COS Cell IC50 (Cell-Based Assay, procedure of WO 95/10516)
Experimental: as §1

[4] = ras form not stated, read-out: FPT IC50
[5] = H-ras, read-out: FPT IC50 (H-ras)
[6] = k-ras, read-out: FPT IC50 (k-ras)

Sequence of farnesyl protein transferase (P49356 whole entry, one chain of several): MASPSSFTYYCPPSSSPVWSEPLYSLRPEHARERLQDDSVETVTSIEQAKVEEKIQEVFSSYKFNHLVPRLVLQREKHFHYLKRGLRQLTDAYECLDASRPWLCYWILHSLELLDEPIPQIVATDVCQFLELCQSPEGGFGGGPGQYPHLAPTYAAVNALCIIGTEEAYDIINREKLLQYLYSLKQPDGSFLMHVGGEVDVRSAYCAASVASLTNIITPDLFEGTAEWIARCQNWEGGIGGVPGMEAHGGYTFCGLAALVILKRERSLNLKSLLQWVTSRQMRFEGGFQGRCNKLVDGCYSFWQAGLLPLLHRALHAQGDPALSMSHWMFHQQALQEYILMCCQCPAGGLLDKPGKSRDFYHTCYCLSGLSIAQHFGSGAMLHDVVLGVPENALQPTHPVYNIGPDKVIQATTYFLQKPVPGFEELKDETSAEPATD

## CCOC(=O)C[C@@H](CC(=O)N1CCC(CC(=O)N2CCC([C@H]3c4ncc(Br)cc4CCc4cc(Cl)cc(Br)c43)CC2)CC1)OC(C)=O [Compound 16.0-B]
[1]
  IC50: ≥ 19.5 nM
[2]; [4]
  IC50: 0.7 to 18 nM
[3]; read-out: Cos Cell
  IC50: ≥ 9 nM

## O=C(CC1CCN(C(=O)CN2C(=O)CSC2=O)CC1)N1CCC([C@H]2c3ncc(Br)cc3CCc3cc(Cl)cc(Br)c32)CC1 [Compound 79.0-B]
[1]
  IC50: ≥ 19.5 nM
[2]; [5]
  IC50: 2 to 31.7 nM
[2]; [4]
  IC50: 0.7 to 18 nM
[3]; read-out: Cos Cell
  IC50: ≥ 9 nM

## O=C(CON=Cc1cc[n+]([O-])cc1)N1CCC(CC(=O)N2CCC(C3c4ncc(Br)cc4CCc4cc(Cl)cc(Br)c43)CC2)CC1 (stereo not drawn) [Compound 22.0-B]
[1]
  IC50: ≥ 19.5 nM
[2]; [4]
  IC50: 0.7 to 18 nM
[3]; read-out: Cos Cell
  IC50: ≥ 9 nM

## NC(=O)CC(=O)N1CCC(CC(=O)N2CCC([C@H]3c4ncc(Br)cc4CCc4cc(Cl)cc(Br)c43)CC2)CC1 [Compound 50.0-B]
[1]
  IC50: ≥ 19.5 nM
[2]; [4]
  IC50: 0.7 to 18 nM
[3]; read-out: Cos Cell
  IC50: ≥ 9 nM

## O=C(O)CC(=O)N1CCC(CC(=O)N2CCC([C@H]3c4ncc(Br)cc4CCc4cc(Cl)cc(Br)c43)CC2)CC1 [Compound 14.0-B]
[1]
  IC50: ≥ 19.5 nM
[2]; [4]
  IC50: 0.7 to 18 nM
[3]; read-out: Cos Cell
  IC50: ≥ 9 nM

## O=C(CC1CCN(C(=O)CC2CCCO2)CC1)N1CCC([C@H]2c3ncc(Br)cc3CCc3cc(Cl)cc(Br)c32)CC1 (stereo partly drawn) [Compound 114.4-B]
[1]
  IC50: ≥ 19.5 nM
[2]; [4]
  IC50: 0.7 to 18 nM
[3]; read-out: Cos Cell
  IC50: ≥ 9 nM

## COC(=O)CCC(=O)N1CCC(CC(=O)N2CCC(C3c4ncc(Br)cc4CCc4cc(Cl)cc(Br)c43)CC2)CC1 (stereo not drawn) [Compound 15.2]
[1]
  IC50: ≥ 19.5 nM
[2]; [5]
  IC50: 2 to 31.7 nM
[3]; read-out: Cos Cell IC50
  IC50: 10 to 700 nM

## N#CCC(=O)N1CCC(CC(=O)N2CCC([C@H]3c4ncc(Br)cc4CCc4cc(Cl)cc(Br)c43)CC2)CC1 [Compound 44.0-B]
[1]
  IC50: ≥ 19.5 nM
[2]; [4]
  IC50: 0.7 to 18 nM
[3]; read-out: Cos Cell
  IC50: ≥ 9 nM

## O=C(Cc1c[nH]cn1)N1CCC(CC(=O)N2CCC([C@H]3c4ncc(Br)cc4CCc4cc(Cl)cc(Br)c43)CC2)CC1 [Compound 30.0-B]
[1]
  IC50: ≥ 19.5 nM
[2]; [4]
  IC50: 0.7 to 18 nM
[3]; read-out: Cos Cell
  IC50: ≥ 9 nM

## COC(=O)C(=O)N1CCC(CC(=O)N2CCC([C@H]3c4ncc(Br)cc4CCc4cc(Cl)cc(Br)c43)CC2)CC1 [Compound 104.0-B]
[1]
  IC50: ≥ 19.5 nM
[2]; [5]
  IC50: 2 to 31.7 nM
[3]; read-out: Cos Cell
  IC50: ≥ 9 nM

## O=C(O)c1cccn1CC(=O)N1CCC(CC(=O)N2CCC([C@H]3c4ncc(Br)cc4CCc4cc(Cl)cc(Br)c43)CC2)CC1 [Compound 52.0-B]
[1]
  IC50: ≥ 19.5 nM
[2]; [4]
  IC50: 0.7 to 18 nM
[3]; read-out: Cos Cell
  IC50: ≥ 9 nM

## NCCC(=O)N1CCC(CC(=O)N2CCC([C@H]3c4ncc(Br)cc4CCc4cc(Cl)cc(Br)c43)CC2)CC1 [Compound 88.0-B]
[1]
  IC50: ≥ 19.5 nM
[2]; [4]
  IC50: 0.7 to 18 nM
[3]; read-out: Cos Cell
  IC50: ≥ 9 nM

## CONC(=O)C(=O)N1CCC(CC(=O)N2CCC([C@H]3c4ncc(Br)cc4CCc4cc(Cl)cc(Br)c43)CC2)CC1 [Compound 49.0-B]
[1]
  IC50: ≥ 19.5 nM
[2]; [4]
  IC50: 0.7 to 18 nM
[3]; read-out: Cos Cell
  IC50: ≥ 9 nM

## O=C(Cc1cccs1)N1CCC(CC(=O)N2CCC([C@H]3c4ncc(Br)cc4CCc4cc(Cl)cc(Br)c43)CC2)CC1 [Compound 82.0-B]
[1]
  IC50: ≥ 19.5 nM
[2]; [4]
  IC50: 0.7 to 18 nM
[3]; read-out: Cos Cell
  IC50: ≥ 9 nM

## O=C(CO)N1CCC(CC(=O)N2CCC([C@H]3c4ncc(Br)cc4CCc4cc(Cl)cc(Br)c43)CC2)CC1 [Compound 37.0-B]
[1]
  IC50: ≥ 19.5 nM
[2]; [4]
  IC50: 0.7 to 18 nM
[3]; read-out: Cos Cell
  IC50: ≥ 9 nM

## O=C(CC1CCN(C(=O)[C@@H]2CCCN2)CC1)N1CCC([C@H]2c3ncc(Br)cc3CCc3cc(Cl)cc(Br)c32)CC1 [Compound 10.0]
[1]
  IC50: ≥ 19.5 nM
[2]; [5]
  IC50: 2 to 31.7 nM
[2]; [6]
  IC50: 14.5 to 71.2 nM
[3]; read-out: Cos Cell IC50
  IC50: 10 to 700 nM

## CC(C)(C)OC(=O)N1C[C@H](O)C[C@H]1C(=O)N1CCC(CC(=O)N2CCC([C@H]3c4ncc(Br)cc4CCc4cc(Cl)cc(Br)c43)CC2)CC1 [Compound 24.0-B]
[1]
  IC50: ≥ 19.5 nM
[2]; [4]
  IC50: 0.7 to 18 nM
[3]; read-out: Cos Cell
  IC50: ≥ 9 nM

## O=C(OCc1ccccc1)c1cccn1CC(=O)N1CCC(CC(=O)N2CCC([C@H]3c4ncc(Br)cc4CCc4cc(Cl)cc(Br)c43)CC2)CC1 [Compound 55.0-B]
[1]
  IC50: ≥ 19.5 nM
[2]; [4]
  IC50: 0.7 to 18 nM
[3]; read-out: Cos Cell
  IC50: ≥ 9 nM

## CC(C)=NOCC(=O)N1CCC(CC(=O)N2CCC([C@H]3c4ncc(Br)cc4CCc4cc(Cl)cc(Br)c43)CC2)CC1 [Compound 9.0-B]
[1]
  IC50: ≥ 19.5 nM
[2]; [6]
  IC50: 14.5 to 71.2 nM
[2]; [4]
  IC50: 0.7 to 18 nM
[3]; read-out: Cos Cell
  IC50: ≥ 9 nM

## O=C(CC1CCN(C(=O)Cn2cccc2)CC1)N1CCC([C@H]2c3ncc(Br)cc3CCc3cc(Cl)cc(Br)c32)CC1 [Compound 34.0-B]
[1]
  IC50: ≥ 19.5 nM
[2]; [4]
  IC50: 0.7 to 18 nM
[3]; read-out: Cos Cell
  IC50: ≥ 9 nM

## O=C1NC(=O)C(CC(=O)N2CCC(CC(=O)N3CCC([C@H]4c5ncc(Br)cc5CCc5cc(Cl)cc(Br)c54)CC3)CC2)N1 (stereo partly drawn) [Compound 77.0-B]
[1]
  IC50: ≥ 19.5 nM
[2]; [4]
  IC50: 0.7 to 18 nM
[3]; read-out: Cos Cell
  IC50: ≥ 9 nM

## O=C(O)CCCCC(=O)N1CCC(CC(=O)N2CCC([C@H]3c4ncc(Br)cc4CCc4cc(Cl)cc(Br)c43)CC2)CC1 [Compound 107.0-B]
[1]
  IC50: ≥ 19.5 nM
[2]; [4]
  IC50: 0.7 to 18 nM
[3]; read-out: Cos Cell
  IC50: ≥ 9 nM

## O=C(O)CCCC(=O)N1CCC(CC(=O)N2CCC([C@H]3c4ncc(Br)cc4CCc4cc(Cl)cc(Br)c43)CC2)CC1 [Compound 19.0-B]
[1]
  IC50: ≥ 19.5 nM
[2]; [4]
  IC50: 0.7 to 18 nM
[3]; read-out: Cos Cell
  IC50: ≥ 9 nM

## O=C(CC1CCN(C(=O)Cn2cnc([N+](=O)[O-])c2)CC1)N1CCC([C@H]2c3ncc(Br)cc3CCc3cc(Cl)cc(Br)c32)CC1 [Compound 26.0-B]
[1]
  IC50: ≥ 19.5 nM
[2]; [4]
  IC50: 0.7 to 18 nM
[3]; read-out: Cos Cell
  IC50: ≥ 9 nM

## CCOC(=O)c1ncn(CC(=O)N2CCC(CC(=O)N3CCC([C@H]4c5ncc(Br)cc5CCc5cc(Cl)cc(Br)c54)CC3)CC2)c1C [Compound 54.0-B]
[1]
  IC50: ≥ 19.5 nM
[2]; [4]
  IC50: 0.7 to 18 nM
[3]; read-out: Cos Cell
  IC50: ≥ 9 nM

## CC(C)(C)OC(=O)NCCCC(=O)N1CCC(CC(=O)N2CCC([C@H]3c4ncc(Br)cc4CCc4cc(Cl)cc(Br)c43)CC2)CC1 [Compound 89.0-B]
[1]
  IC50: ≥ 19.5 nM
[2]; [4]
  IC50: 0.7 to 18 nM
[3]; read-out: Cos Cell
  IC50: ≥ 9 nM

## CN(C)C(=O)C(=O)N1CCC(CC(=O)N2CCC([C@H]3c4ncc(Br)cc4CCc4cc(Cl)cc(Br)c43)CC2)CC1 [Compound 33.0-B]
[1]
  IC50: ≥ 19.5 nM
[2]; [4]
  IC50: 0.7 to 18 nM
[3]; read-out: Cos Cell
  IC50: ≥ 9 nM

## COC(=O)CCCCCC(=O)N1CCC(CC(=O)N2CCC([C@H]3c4ncc(Br)cc4CCc4cc(Cl)cc(Br)c43)CC2)CC1 [Compound 68.0-B]
[1]
  IC50: ≥ 19.5 nM
[2]; [4]
  IC50: 0.7 to 18 nM
[3]; read-out: Cos Cell
  IC50: ≥ 9 nM

## CN(C)CCC(=O)N1CCC(CC(=O)N2CCC(C3c4ncc(Br)cc4CCc4cc(Cl)cc(Br)c43)CC2)CC1 (single isomer, unassigned; (+)) [Compound 12.3]
[1]
  IC50: ≥ 19.5 nM
[2]; [5]
  IC50: 2 to 31.7 nM
[2]; [6]
  IC50: 14.5 to 71.2 nM
[3]; read-out: Cos Cell IC50
  IC50: 10 to 700 nM

## O=C(O)CCCCCC(=O)N1CCC(CC(=O)N2CCC([C@H]3c4ncc(Br)cc4CCc4cc(Cl)cc(Br)c43)CC2)CC1 [Compound 70.0-B]
[1]
  IC50: ≥ 19.5 nM
[2]; [4]
  IC50: 0.7 to 18 nM
[3]; read-out: Cos Cell
  IC50: ≥ 9 nM

## O=C(CC1CCN(C(=O)Cn2cncn2)CC1)N1CCC([C@H]2c3ncc(Br)cc3CCc3cc(Cl)cc(Br)c32)CC1 [Compound 57.0-B]
[1]
  IC50: ≥ 19.5 nM
[2]; [4]
  IC50: 0.7 to 18 nM
[3]; read-out: Cos Cell
  IC50: ≥ 9 nM

## COC(=O)CCCCC(=O)N1CCC(CC(=O)N2CCC([C@H]3c4ncc(Br)cc4CCc4cc(Cl)cc(Br)c43)CC2)CC1 [Compound 101.0-B]
[1]
  IC50: ≥ 19.5 nM
[2]; [4]
  IC50: 0.7 to 18 nM
[3]; read-out: Cos Cell
  IC50: ≥ 9 nM

## O=C(CC1CCN(C(=O)Cn2cnc3ccccc32)CC1)N1CCC([C@H]2c3ncc(Br)cc3CCc3cc(Cl)cc(Br)c32)CC1 [Compound 12.0-B]
[1]
  IC50: ≥ 19.5 nM
[2]; [6]
  IC50: 14.5 to 71.2 nM
[2]; [4]
  IC50: 0.7 to 18 nM
[3]; read-out: Cos Cell
  IC50: ≥ 9 nM

## CN(C)CC(=O)N1CCC(CC(=O)N2CCC(C3c4ncc(Br)cc4CCc4cc(Cl)cc(Br)c43)CC2)CC1 (single isomer, unassigned; (+)) [Compound 12.1]
[1]
  IC50: ≥ 19.5 nM
[2]; [5]
  IC50: 2 to 31.7 nM
[2]; [6]
  IC50: 14.5 to 71.2 nM
[3]; read-out: Cos Cell IC50
  IC50: 10 to 700 nM
